This note sets out measurements from article PMC3429062, “A Novel Member of the Trehalose Transporter Family Functions as an H^+-Dependent Trehalose Transporter in the Reabsorption of Trehalose in Malpighian Tubules” (Frontiers in Physiology, 2012).

The target in the assay is T1, PvTRET1 (Polypedilum vanderplanki, UniProt A5LGM7).
T1 construct: gene Tret1; expressed from injected cRNA in Xenopus oocytes; construct described previously
T1 sequence (A5LGM7 1-504): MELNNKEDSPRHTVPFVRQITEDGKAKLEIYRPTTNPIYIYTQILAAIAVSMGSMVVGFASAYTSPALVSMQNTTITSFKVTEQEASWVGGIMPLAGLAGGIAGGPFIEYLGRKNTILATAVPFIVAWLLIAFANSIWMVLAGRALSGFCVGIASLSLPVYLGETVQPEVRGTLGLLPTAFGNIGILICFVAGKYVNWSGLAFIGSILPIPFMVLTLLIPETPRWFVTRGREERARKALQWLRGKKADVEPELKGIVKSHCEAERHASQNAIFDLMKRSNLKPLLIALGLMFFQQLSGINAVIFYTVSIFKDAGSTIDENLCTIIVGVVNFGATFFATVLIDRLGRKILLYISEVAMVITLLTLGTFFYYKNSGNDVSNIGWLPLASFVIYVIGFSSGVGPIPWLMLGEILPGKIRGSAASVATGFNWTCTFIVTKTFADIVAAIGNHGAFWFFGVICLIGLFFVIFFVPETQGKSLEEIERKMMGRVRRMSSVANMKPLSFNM
As to the kind of experiment: uptake into cRNA-injected Xenopus oocytes, HPLC. It is filed as cell-based. The conditions noted are these: 105 mM trehalose, various pH; transport.

Take `OC[C@H]1O[C@H](O[C@H]2O[C@H](CO)[C@@H](O)[C@H](O)[C@H]2O)[C@H](O)[C@@H](O)[C@@H]1O` [trehalose]: the trehalose uptake entry is on record as “Trehalose uptake into Xenopus oocytes via PvTRET1 at various pH values”.
